According to patent publication US8470804B2, “11a, 12-derivatives of tetracycline compounds” (Paratek Pharmaceuticals, Inc., priority 2005, dated 2013):

Tests used:
common bacteria = assay: In vitro minimum inhibitory concentration (MIC) assay; type: cell-based, E. coli, S. aureus, Enterococcus sp.; conditions: broth microdilution in CAMHB, 35° C., approximately 18 hours
Method: The following assay was used to determine the efficacy of tetracycline compounds against common bacteria. 2 mg of each compound were dissolved in 100 μl of DMSO. […] The tetracycline compound solutions were diluted to 50 μl, volumes, with a test compound concentration of 0.098 μg/ml. Optical density (OD) determinations were made from fresh log-phase broth cultures of the test strains. Dilutions were made to achieve a final cell density of 1×10^6 CFU/ml. At OD=1, cell densities for different genera were approximately: [table] 50 μl of the cell suspensions were added to each well of microtiter plates. The final cell density should be approximately 5×10^5 CFU/ml. These plates are incubated at 35° C. in an ambient air incubator for approximately 18 hours. The plates are read with a microplate reader and are visually inspected when necessary. The MIC was defined as the lowest concentration of the tetracycline compound that inhibits growth.

EAE induced mice = assay: In vivo experimental autoimmune encephalomyelitis (EAE) murine model; parameters: species or system C57BL/6 female mice; conditions: IP injections 50 mg/kg each day from day 10 (onset of disease); minocycline control at same dose
Method: In this example, a mouse model was used to determine the ability of the tetracycline compounds to treat demyelination related diseases. Other models which can be used are described in Brundula V. et al. Brain 2002 June; 125 (Pt 6): 1297-308 and Popovic N. et al. Ann Neural. 2002 February; 51(2):215-23.
To induce EAE, 6 week old C57BL/6 female mice were injected subcutaneously with 200 ug of myelin oligodendrocyte glycoprotein peptide (MOG 35-55) emulsified in 200 μL of complete Freund's adjuvant containing an additional 4 mg/mL of heat killed M. tuberculosis. Mice were additionally injected intravenously (tail vein) with 150 ng of lyophilized pertussis toxin resuspended in 150 μL PBS at time 0 and again 48 hours later. In this model, the mice developed progressive posterior to anterior advancing paralysis with symptoms first appearing at 10-12 days and progressing to severe paralysis by approximately 21 days. Severity of EAE was scored daily according to the following criteria: 0, healthy; 1, limp tail; 2, partial paralysis of one or two hind limbs; 3, complete paralysis of the hind limbs; 4, complete hind limb paralysis and forelimb paraparesis; 5, moribund. All test experiments included control groups of EAE induced mice treated with vehicle only or treated with minocycline, with 10 mice per group. […]

| antibacterial activity (MIC) (common bacteria) | Compound | activity in EAE model (severity of EAE scored daily 0-5) compared with minocycline (EAE induced mice) |
| --- | --- | --- |
| low antibacterial activity | C[C@H]1c2ccc(N)c(O)c2C(=O)C2=C[C@]3(O)C(=O)C(C(N)=O)=C(O)[C@@H](N(C)C)[C@@H]3[C@@H](O)[C@@H]21 [9-Amino-12-dehydrodoxycline, (4S,4aR,5S,5aR,6R,12aR)-9-Amino-4-dimethylamino-3,5,10,12a-tetrahydroxy-6-methyl-1,11-dioxo-1,4,4a,5,5a,6,11,12a-octahydro-naphthacene-2-carboxylic acid amide] |  |
| low antibacterial activity | C[C@H]1c2ccc(N(C)C)c(O)c2C(=O)C2=C[C@]3(O)C(=O)C(C(N)=O)=C(O)[C@@H](N(C)C)[C@@H]3[C@@H](O)[C@@H]21 [9-bis-dimethylamino-12-dehydrodoxycline, (4S,4aR,5S,5aR,6R,12aR)-4,9-Bis-dimethylamino-3,5,10,12a-tetrahydroxy-6-methyl-1,11-dioxo-1,4,4a,5,5a,6,11,12a-octahydro-naphthacene-2-carboxylic acid amide] |  |
| low antibacterial activity | C[C@H]1c2cccc(O)c2C(=O)C2=C[C@]3(O)C(=O)C(C(N)=O)=C(O)[C@@H](N(C)C)[C@@H]3[C@@H](O)[C@@H]21 [12-dehydrodoxycycline, (4S,4aR,5S,5aR,6R,12aR)-4-Dimethylamino-3,5,10,12a-tetrahydroxy-6-methyl-1,11-dioxo-1,4,4a,5,5a,6,11,12a-octahydro-naphthacene-2-carboxylic acid amide] | activity similar to or better than minocycline |
|  | CNC1C2C(=O)c3c(O)cccc3[C@H](C)[C@H]2[C@H](O)[C@H]2[C@H](N(C)C)C(O)=C(C(N)=O)C(=O)[C@@]12O (stereo partly drawn) [12-methylamino-12-dehydrodoxycycline, (4S,4aR,5S,5aR,6R,12aS)-4-Dimethylamino-3,5,10,12a-tetrahydroxy-6-methyl-12-methylamino-1,11-dioxo-1,4,4a,5,5a,6,11,11a,12,12a-decahydro-naphthacene-2-carboxylic acid amide] | activity similar to or better than minocycline |
